Source: patent publication US11312727B1, “Macrocyclic flu endonuclease inhibitors” (Janssen BioPharma, Inc., priority 2018, dated 2022)

System: not listed separately
Experiment: in vitro
Conditions: human, CC50, uninfected A549 cells, CellTiter-Glo

`O=C1c2c(O)c(=O)ccn2N2CN1C/C=C\CCc1ccccc1[C@H]2c1ccccc1` (single isomer, unassigned) [Compound 21A, (17*R,*Z)-4-hydroxy-16-phenyl-7,10,11,16-tetrahydro-6,17-methanobenzo[k]pyrido[1,2-b][1,2,5]triazacyclotridecine-3,5-dione] showed a CC50 greater than 1000 nM.

System: Influenza strain A549 A/WSN/33 (H1N1)
Experiment: microbe, parasite or virus in culture
Format: cell-based
Conditions: Influenza A virus, A549, 20 h, A549 cells, influenza A/WSN/33 (H1N1), 20 hours incubation; read-out: A549_A(H1N1) EC50

`O=C1c2c(O)c(=O)ccn2N2CN1C/C=C\CCc1ccccc1[C@H]2c1ccccc1` (single isomer, unassigned) [Compound 21A, (17*R,*Z)-4-hydroxy-16-phenyl-7,10,11,16-tetrahydro-6,17-methanobenzo[k]pyrido[1,2-b][1,2,5]triazacyclotridecine-3,5-dione] and `O=C1c2c(O)c(=O)ccn2N2CN1C/C=C\COc1c(F)cccc1[C@H]2c1cccc(F)c1` (single isomer, unassigned) [Compound 59A, (18*R,Z)-4-fluoro-18-(3-fluorophenyl)-12-hydroxy-6,9-dihydro-18H-10,17-methanobenzo[b]pyrido[1,2-f][1]oxa[5,6,9]triazacyclotridecine-11,13-dione] are the same in EC50: 5 nM for the first, 5 nM for the second.

`CC[C@H]1/C=C/COc2c(ccc(F)c2F)[C@@H](c2ccccc2C)N2CN1C(=O)c1c(O)c(=O)ccn12` (single isomer, unassigned) [Compound 167AA, (9*S,18*R,E)-9-ethyl-3,4-difluoro-12-hydroxy-18-(o-tolyl)-6,9-dihydro-18H-10,17-methanobenzo[b]pyrido[1,2-f][1]oxa[5,6,9]triazacyclotridecine-11,13-dione] and `CC[C@@H]1/C=C/COc2c(ccc(F)c2F)[C@@H](c2ccccc2C)N2CN1C(=O)c1c(O)c(=O)ccn12` (single isomer, unassigned) [Compound 167AB, (9*R,18*R,E)-9-ethyl-3,4-difluoro-12-hydroxy-18-(o-tolyl)-6,9-dihydro-18H-10,17-methanobenzo[b]pyrido[1,2-f][1]oxa[5,6,9]triazacyclotridecine-11,13-dione] are within 1.5-fold of each other in EC50: 0.91 nM for the first, 0.96 nM for the second.

`CC[C@H]1/C=C/COc2c(ccc(F)c2F)[C@H](c2ccccc2C)N2CN1C(=O)c1c(O)c(=O)ccn12` (single isomer, unassigned) [Compound 167BA, (9*S,18*S,E)-9-ethyl-3,4-difluoro-12-hydroxy-18-(o-tolyl)-6,9-dihydro-18H-10,17-methanobenzo[b]pyrido[1,2-f][1]oxa[5,6,9]triazacyclotridecine-11,13-dione] and `CC[C@@H]1/C=C/COc2c(ccc(F)c2F)[C@H](c2ccccc2C)N2CN1C(=O)c1c(O)c(=O)ccn12` (single isomer, unassigned) [Compound 167BB, (9*R,18*S,E)-9-ethyl-3,4-difluoro-12-hydroxy-18-(o-tolyl)-6,9-dihydro-18H-10,17-methanobenzo[b]pyrido[1,2-f][1]oxa[5,6,9]triazacyclotridecine-11,13-dione] cannot be ordered by EC50: greater than 50 nM for the first, greater than 50 nM for the second.

Going from `O=C1c2c(O)c(=O)ccn2N2CN1C1(/C=C/COc3cc(F)c(F)c4c3[C@H]2c2ncccc2SC4)CCC1` (single isomer, unassigned) [Compound 168B, (21a′*S,*E)-24′,25′-difluoro-16′-hydroxy-6′,21a′-dihydro-10′H-spiro[cyclobutane-1,13′-[7,8](epiprop[1]en[1]yl[3]ylidene)[14,21]methanopyrido[1,2-f]pyrido[2′,3′:6,7]thiepino[4,5-c][1]oxa[5,6,9]triazacyclotridecine]-15′,17′-dione] to `O=C1c2c(O)c(=O)ccn2N2CN1[C@@]1(/C=C/COc3cc(F)c(F)c4c3[C@H]2c2ccccc2SC4)CCOC1` (single isomer, unassigned) [Compound 176BA, (3*R, 17a′*S,*E)-24′,25′-difluoro-12′-hydroxy-2′,4,5,17a′-tetrahydro-2H,6′H-spiro[furan-3,9′-[3,4](epiprop[1]en[1]yl[3]ylidene)[10,17]methanobenzo[6,7]thiepino[4,5-c]pyrido[1,2-f][1]oxa[5,6,9]triazacyclotridecine]-11′,13′-dione], the EC50 rises from 0.6 nM to 1.1 nM (1.8-fold). The first is the more potent here.

Compared with `CC(C)[C@H]1/C=C/COc2cc(F)c(F)c3c2[C@H](c2ccccc2SC3)N2CN1C(=O)c1c(O)c(=O)ccn12` (single isomer, unassigned) [Compound 169BA, (9*S,17a*R,*E)-24,25-difluoro-12-hydroxy-9-isopropyl-2,6,9,17a-tetrahydro-3,4-(epiprop[1]en[1]yl[3]ylidene)-10,17-methanobenzo[6,7]thiepino[4,5-c]pyrido[1,2-f][1]oxa[5,6,9]triazacyclotridecine-11,13-dione], `COC[C@H]1/C=C/COc2cc(F)c(F)c3c2[C@H](c2ccccc2SC3)N2CN1C(=O)c1c(O)c(=O)ccn12` (single isomer, unassigned) [Compound 177AA, (9*R,17a*R,*E)-24,25-difluoro-12-hydroxy-9-(methoxymethyl)-2,6,9,17a-tetrahydro-3,4-(epiprop[1]en[1]yl[3]ylidene)-10,17-methanobenzo[6,7]thiepino[4,5-c]pyrido[1,2-f][1]oxa[5,6,9]triazacyclotridecine-11,13-dione] is 18-fold higher in EC50: 0.83 nM for the first, 15 nM for the second. The first is the more potent here.

First: CC[C@H]1/C=C/COc2c(ccc(Cl)c2F)[C@@H](c2ccccc2)N2CN1C(=O)c1c(O)c(=O)ccn12 (single isomer, unassigned) [Compound 170BA, (9*S,18*R,E)-3-chloro-9-ethyl-4-fluoro-12-hydroxy-18-phenyl-6,9-dihydro-18H-10,17-methanobenzo[b]pyrido[1,2-f][1]oxa[5,6,9]triazacyclotridecine-11,13-dione]
Second: CC[C@@H]1/C=C/COc2c(ccc(Cl)c2F)[C@@H](c2ccccc2)N2CN1C(=O)c1c(O)c(=O)ccn12 (single isomer, unassigned) [Compound 170BB, (9*R,18*R,E)-3-chloro-9-ethyl-4-fluoro-12-hydroxy-18-phenyl-6,9-dihydro-18H-10,17-methanobenzo[b]pyrido[1,2-f][1]oxa[5,6,9]triazacyclotridecine-11,13-dione]
The EC50 of the first is 12-fold higher: 24 nM for the first, 2 nM for the second.

Going from `CC[C@H]1/C=C/COc2c(ccc(F)c2Cl)[C@@H](c2ccccc2)N2CN1C(=O)c1c(O)c(=O)ccn12` (single isomer, unassigned) [Compound 173BA, (9*S,18*R,*E)-4-chloro-9-ethyl-3-fluoro-12-hydroxy-18-phenyl-6,9-dihydro-18H-10,17-methanobenzo[b]pyrido[1,2-f][1]oxa[5,6,9]triazacyclotridecine-11,13-dione] to `CC[C@H]1/C=C/COc2cccc3c2[C@@H](c2ccccc2SC3)N2CN1C(=O)c1c(O)c(=O)ccn12` [Compound 92BA, (9S,17aS,E)-9-ethyl-12-hydroxy-2,6,9,17a-tetrahydro-3,4-(epiprop[1]en[1]yl[3]ylidene)-10,17-methanobenzo[6,7]thiepino[4,5-c]pyrido[1,2-f][1]oxa[5,6,9]triazacyclotridecine-11,13-dione], the EC50 falls from 26 nM to 0.7 nM (37-fold).

First: Cc1ccccc1[C@H]1c2ccc(F)c(F)c2OC/C=C/C2(CCC2)N2CN1n1ccc(=O)c(O)c1C2=O (single isomer, unassigned) [Compound 174B, (18′*S,*E)-3′,4′-difluoro-12′-hydroxy-18′-(o-tolyl)-6′H,18′H-spiro[cyclobutane-1,9′-[10,17]methanobenzo[b]pyrido[1,2-f][1]oxa[5,6,9]triazacyclotridecine]-11′,13′-dione]
Second: O=C1c2c(O)c(=O)ccn2N2CN1C/C=C\COc1c(ccc(F)c1F)[C@H]2c1ccccc1CF (single isomer, unassigned) [Compound 175A, (18*R,Z)-3,4-difluoro-18-(2-(fluoromethyl)phenyl)-12-hydroxy-6,9-dihydro-18H-10,17-methanobenzo[b]pyrido[1,2-f][1]oxa[5,6,9]triazacyclotridecine-11,13-dione]
The EC50 of the first is 1.9-fold lower: 1.2 nM for the first, 2.3 nM for the second. The first is the more potent here.

Compared with `O=C1c2c(O)c(=O)ccn2N2CN1[C@]1(/C=C/COc3cc(F)c(F)c4c3[C@H]2c2ccccc2SC4)CCOC1` (single isomer, unassigned) [Compound 176BB, (3*S, 17a′*S,*E)-24′,25′-difluoro-12′-hydroxy-2′,4,5,17a′-tetrahydro-2H,6′H-spiro[furan-3,9′-[3,4](epiprop[1]en[1]yl[3]ylidene)[10,17]methanobenzo[6,7]thiepino[4,5-c]pyrido[1,2-f][1]oxa[5,6,9]triazacyclotridecine]-11′,13′-dione], `O=C1c2c(O)c(=O)ccn2N2CN1C1(/C=C/COc3cc(F)cc4c3[C@@H]2c2ccccc2SC4)CCC1` (single isomer, unassigned) [Compound 180A, (17a′*R,*E)-24′-fluoro-12′-hydroxy-2′,17a′-dihydro-6′H-spiro[cyclobutane-1,9′-[3,4](epiprop[1]en[1]yl[3]ylidene)[10,17]methanobenzo[6,7]thiepino[4,5-c]pyrido[1,2-f][1]oxa[5,6,9]triazacyclotridecine]-11′,13′-dione] is 21-fold higher in EC50: 1.4 nM for the first, 29 nM for the second. The first is the more potent here.

Going from `COC[C@@H]1/C=C/COc2cc(F)c(F)c3c2[C@H](c2ccccc2SC3)N2CN1C(=O)c1c(O)c(=O)ccn12` (single isomer, unassigned) [Compound 177AB, (9*S,17a*R,*E)-24,25-difluoro-12-hydroxy-9-(methoxymethyl)-2,6,9,17a-tetrahydro-3,4-(epiprop[1]en[1]yl[3]ylidene)-10,17-methanobenzo[6,7]thiepino[4,5-c]pyrido[1,2-f][1]oxa[5,6,9]triazacyclotridecine-11,13-dione] to `O=C1c2c(O)c(=O)ccn2N2CN1C1(/C=C/COc3cc(F)cc4c3[C@H]2c2ccccc2SC4)CCC1` (single isomer, unassigned) [Compound 180B, (17a′*S,*E)-24′-fluoro-12′-hydroxy-2′,17a′-dihydro-6′H-spiro[cyclobutane-1,9′-[3,4](epiprop[1]en[1]yl[3]ylidene)[10,17]methanobenzo[6,7]thiepino[4,5-c]pyrido[1,2-f][1]oxa[5,6,9]triazacyclotridecine]-11′,13′-dione], the EC50 falls from 0.67 nM to 0.36 nM (1.9-fold).

For `O=C1c2c(O)c(=O)ccn2N2CN1[C@H]1C[C@H]1CCOc1cccc3c1[C@H]2c1ccccc1SC3` (stereo in doubt) [Compound 166B, cis-(11a*RS,12a*RS,13S,20a*S)-15-hydroxy-6,11,11a,12,12a,20a-hexahydro-10H-7,8-(epiprop[1]en[1]yl[3]ylidene)-13,20-methanobenzo[6,7]thiepino[4,5-c]cyclopropa[j]pyrido[1,2-f][1]oxa[5,6,9]triazacyclotridecine-14,16-dione], the EC50 was 28 nM.
